These results are taken from patent US20080255162A1, “Pyrrolyl Substituted Pyrido[2,3-D]Pyrimidin-7-Ones and Derivatives Thereof as Therapeutic Agents” (WARNER-LAMBERT COMPANY LLC, priority 2004, published 2008).

One assay deals with T1, PI3Kγ (purified recombinant p101/p110γ protein) (Homo sapiens, UniProt P48736).
T1 construct: HA; made in house; host or cells: Spodoptera frugiperda Sf9 cells (baculovirus co-infection)
T1 sequence (P48736 whole entry, species assumed): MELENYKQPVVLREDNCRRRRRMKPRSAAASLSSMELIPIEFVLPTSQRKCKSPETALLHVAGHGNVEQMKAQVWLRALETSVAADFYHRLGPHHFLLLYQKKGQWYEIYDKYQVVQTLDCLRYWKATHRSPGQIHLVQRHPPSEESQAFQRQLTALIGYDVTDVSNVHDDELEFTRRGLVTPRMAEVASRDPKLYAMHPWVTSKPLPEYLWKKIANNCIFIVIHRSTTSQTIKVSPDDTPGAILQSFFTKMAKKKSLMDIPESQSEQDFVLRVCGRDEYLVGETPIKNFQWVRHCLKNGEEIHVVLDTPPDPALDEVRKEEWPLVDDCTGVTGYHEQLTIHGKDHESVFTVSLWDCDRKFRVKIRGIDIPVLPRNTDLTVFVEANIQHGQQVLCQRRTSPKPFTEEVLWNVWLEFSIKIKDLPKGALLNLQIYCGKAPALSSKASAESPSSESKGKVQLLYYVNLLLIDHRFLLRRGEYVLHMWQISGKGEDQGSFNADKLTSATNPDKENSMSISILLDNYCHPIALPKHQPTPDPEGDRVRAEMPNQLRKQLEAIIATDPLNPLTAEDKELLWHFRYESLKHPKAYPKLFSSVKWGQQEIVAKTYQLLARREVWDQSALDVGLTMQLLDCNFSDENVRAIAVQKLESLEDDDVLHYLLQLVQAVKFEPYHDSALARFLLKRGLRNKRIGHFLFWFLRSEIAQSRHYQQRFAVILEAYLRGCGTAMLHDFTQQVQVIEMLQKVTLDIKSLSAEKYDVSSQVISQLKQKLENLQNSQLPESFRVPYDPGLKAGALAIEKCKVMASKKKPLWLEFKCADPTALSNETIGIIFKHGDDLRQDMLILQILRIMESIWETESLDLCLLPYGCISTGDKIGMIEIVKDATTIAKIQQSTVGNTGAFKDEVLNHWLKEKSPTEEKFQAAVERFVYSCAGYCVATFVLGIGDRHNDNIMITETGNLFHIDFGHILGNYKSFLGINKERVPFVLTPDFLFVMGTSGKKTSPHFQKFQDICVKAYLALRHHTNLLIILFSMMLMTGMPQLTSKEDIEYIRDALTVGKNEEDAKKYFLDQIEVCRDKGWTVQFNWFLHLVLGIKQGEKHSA
T1 sequence (Q8WYR1 whole entry partner, species assumed): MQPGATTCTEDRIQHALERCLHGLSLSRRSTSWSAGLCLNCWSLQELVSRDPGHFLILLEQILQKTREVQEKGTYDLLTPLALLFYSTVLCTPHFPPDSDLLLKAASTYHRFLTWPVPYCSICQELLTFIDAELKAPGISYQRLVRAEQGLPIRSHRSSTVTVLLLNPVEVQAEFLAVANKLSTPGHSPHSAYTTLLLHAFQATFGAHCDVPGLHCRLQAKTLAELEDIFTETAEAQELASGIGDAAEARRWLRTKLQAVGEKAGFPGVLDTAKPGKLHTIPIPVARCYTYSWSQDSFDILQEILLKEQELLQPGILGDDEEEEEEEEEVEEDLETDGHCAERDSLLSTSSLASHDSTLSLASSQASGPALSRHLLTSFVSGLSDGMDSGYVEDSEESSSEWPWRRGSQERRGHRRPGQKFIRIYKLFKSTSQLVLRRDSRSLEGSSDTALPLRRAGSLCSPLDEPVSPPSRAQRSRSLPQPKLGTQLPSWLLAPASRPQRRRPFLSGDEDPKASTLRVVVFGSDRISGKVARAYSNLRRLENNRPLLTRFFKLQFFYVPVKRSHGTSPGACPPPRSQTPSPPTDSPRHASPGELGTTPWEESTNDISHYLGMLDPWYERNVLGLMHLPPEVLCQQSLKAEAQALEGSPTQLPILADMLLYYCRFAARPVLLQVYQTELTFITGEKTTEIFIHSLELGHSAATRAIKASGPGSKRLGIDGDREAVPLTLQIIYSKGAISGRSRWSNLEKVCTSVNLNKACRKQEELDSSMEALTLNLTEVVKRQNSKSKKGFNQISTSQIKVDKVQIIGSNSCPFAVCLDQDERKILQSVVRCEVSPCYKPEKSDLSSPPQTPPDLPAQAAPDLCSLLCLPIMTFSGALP
In words: PI3Kγ In Vitro Kinase Assay. Type of assay: biochemical. To be noted: final ATP 20 μM, 25 μM PIP2, G protein β1/γ2 subunits, 20 minutes at room temperature. As to the method: Spodtera frugiperda cells, grown in ESF921 media, were co-infected with baculovirus expressing a glu-tagged p101 and baculovirus expressing an HA-tagged p110γ, at a 3:1 ratio of p101 baculovirus to p110γ baculovirus. Sf9 cells were grown to 1×10^7 total cells/mL in 10 L bioreactors and harvested 48-72 hours post infection. Samples of infected cells were then tested for expression of p101/p110γ PI3 kinase by immunoprecipitation and Western Blot analysis methods (see below).
To purify PI3Kγ, 4 volumes of room temperature hypotonic lysis buffer (1 mM MgCl2, 1 mM DTT, 5 mM EGTA, 1 mM Pefabloc, 0.5 μM aprotinin, 5 μM leupeptin, 2 μM pepstatin, 5 μM E64, pH 8) per gram of cell paste, was poured onto frozen cell pellets with stirring, then lysed in a nitrogen “bomb” at 400 psi (599HC T316, Parr Instrument Co, Moline, Ill.). NaCl was added to 150 mM, and sodium cholate was added to 1% and mixed for another 45 minutes. The lysates were clarified by centrifugation for 25 minutes at 14,000 rpm. The lysates were then loaded over anti-glu-linked Protein-G Sepaharose beads (Covance Research Products, Richmond, Calif.) using 20 mL resin/50 g cell paste. The column was washed with 15 volumes of wash buffer (1 mM DTT, 0.2 mM EGTA, 1 mM Pefabloc, 0.5 μM aprotinin, 5 μM leupeptin, 2 μM pepstatin, 5 μM E64, 150 mM NaCl, 1% sodium cholate, pH 8). PI3Kγ was eluted with 6 column volumes of wash buffer that contain 100 μg/mL of a peptide that competes for binding of the glu tag. The column fractions with the eluted protein (determined by taking OD280 readings) were collected and dialyzed in 0.2 mM EGTA, 1 mM DTT, 1 mM Pefabloc, 5 μM leupeptin, 0.5% sodium cholate, 150 mM NaCl, and 50% glycerol, pH 8. The fractions were stored at −80° C. until further use.
Spodtera frugiperda cells were coinfected with baculovirus expressing a glu-tagged G protein β1 and baculovirus expressing a G protein β2, at a 1:1 ratio of glu-tagged G protein β1 baculovirus to G protein β2 baculovirus. Sf9 cells are grown in 10 L bioreactors and harvested 48-72 hours post infection. Samples of infected cells were tested for G protein β1/β2 expression by Western Blot analysis, as described below. Cell lysates were homogenized and loaded onto a column of glu-tagged beads as in Biological Example 1 and competed off the column with a glu peptide and processed as described in Biological Example 1.
The inhibitory properties of the compounds in Table 1 were assayed in an in vitro PI3K assay. In a 96-well polypropylene plate, each well was spotted with 2 μL of 50 times the desired final concentration of compound in DMSO. Purified recombinant p101/p110γ protein (0.03 μg; ˜2.7 nM) and G protein β1/γ2 subunits (0.09 μg; ˜57.7 nM) for each reaction was combined in the assay buffer (30 mM HEPES, 100 mM NaCl, 1 mM EGTA, and 1 mM DTT). ATP and [γ-^32P-ATP] (0.09 μCi) were added to this mixture so that the final ATP concentration in the reaction was 20 μM. Lipid micelles were formed by sonicating phosphatidylinositol-4,5-diphosphate (PIP2), phosphatidylethanolamine (PE), and Na-cholate in the assay buffer for 10 minutes, adding MgCl2 and incubating on ice for 20 minutes, for final concentrations of 25 μM PIP2, 300 μM PE, 0.02% Na-cholate, and 10 mM MgCl2 in the reaction. The reactions were started by adding equal volumes lipid and enzyme mixture in a total volume of 50 μL, allowed to run for 20 minutes at room temperature, and stopped with 100 μL 75 mM H3PO4. The lipid product was transferred to a glass fiber filter plate and washed with 75 mM H3PO4 several times. The presence of radioactive lipid product (PIP3) was measured by adding Wallac Optiphase mix to each well and counting in a Wallac 1450 Trilux plate reader (PerkinElmer Life Sciences Inc., Boston, Mass. 02118). The IC50 for each compound tested is reported in μM in the Table 2: […]
The IC50 is the midpoint of a concentration-inhibition curve. Consider `Cc1nc(Nc2cc(C(=O)O)n(C)c2)nc2c1ccc(=O)n2C1CCOCC1` [Example 19, 1-Methyl-4-[4-methyl-7-oxo-8-(tetrahydro-pyran-4-yl)-7,8-dihydro-pyrido[2,3-d]pyrimidin-2-ylamino]-1H-pyrrole-2-carboxylic acid], for which the IC50 is 34 nM.
Same read-out and setting: under `CCn1c(=O)c(Cl)cc2c(C)nc(Nc3cc(C(=O)O)n(C)c3)nc21` [Example 31, 4-(6-Chloro-8-ethyl-4-methyl-7-oxo-7,8-dihydro-pyrido[2,3-d]pyrimidin-2-ylamino)-1-methyl-1H-pyrrole-2-carboxylic acid] stands 5 nM; under `Cc1nc(Nc2cc(C(=O)O)n(C)c2)nc2c1cc(F)c(=O)n2C1CCCC1` [Example 24, 4-(8-Cyclopentyl-6-fluoro-4-methyl-7-oxo-7,8-dihydro-pyrido[2,3-d]pyrimidin-2-ylamino)-1-methyl-1H-pyrrole-2-carboxylic acid], 9 nM.
Still for that read-out and setting: next, `COCCn1c(=O)c(-c2cccc(OCc3ccccc3)c2)cc2c(C)nc(Nc3cc(C(=O)OC)n(C)c3)nc21` [Example 34, 4-[6-(3-Benzyloxy-phenyl)-8-(2-methoxy-ethyl)-4-methyl-7-oxo-7,8-dihydro-pyrido[2,3-d]pyrimidin-2-ylamino]-1-methyl-1H-pyrrole-2-carboxylic acid methyl ester]: 305 nM; `Cc1nc(Nc2cc(C(=O)O)n(C)c2)nc2c1cc(F)c(=O)n2C1CCOCC1` [Example 25, 4-[6-Fluoro-4-methyl-7-oxo-8-(tetrahydro-pyran-4-yl)-7,8-dihydro-pyrido[2,3-d]pyrimidin-2-ylamino]-1-methyl-1H-pyrrole-2-carboxylic acid]: 40 nM.
Same read-out and setting: under `CCn1c(=O)c(Cl)cc2c(C)nc(Nc3cc(C(=O)OC)n(C)c3)nc21` [Example 30, 4-(6-Chloro-8-ethyl-4-methyl-7-oxo-7,8-dihydro-pyrido[2,3-d]pyrimidin-2-ylamino)-1-methyl-1H-pyrrole-2-carboxylic acid methyl ester] stands 2 nM; under `Cc1nc(Nc2cc(C(=O)O)n(C(C)C)c2)nc2c1ccc(=O)n2C1CCCCCC1` [Example 22, 4-(8-Cycloheptyl-4-methyl-7-oxo-7,8-dihydro-pyrido[2,3-d]pyrimidin-2-ylamino)-1-isopropyl-1H-pyrrole-2-carboxylic acid], 35 nM; under `Cc1nc(Nc2cc(C(=O)O)n(C)c2)nc2c1ccc(=O)n2C1CCCCCC1` [Example 15, 4-(8-Cycloheptyl-4-methyl-7-oxo-7,8-dihydro-pyrido[2,3-d]pyrimidin-2-ylamino)-1-methyl-1H-pyrrole-2-carboxylic acid], 33 nM.
For the compound `COCCn1c(=O)c(Br)cc2c(C)nc(Nc3cc(C(=O)O)n(C)c3)nc21` [Example 32, 4-[6-Bromo-8-(2-methoxy-ethyl)-4-methyl-7-oxo-7,8-dihydro-pyrido[2,3-d]pyrimidin-2-ylamino]-1-methyl-1H-pyrrole-2-carboxylic acid], the half-inhibitory concentration (IC50) came out at 5 nM.
On the same count and under the same terms, next, `Cc1nc(Nc2cc(C(=O)O)n(C(C)c3ccccc3)c2)nc2c1cc(F)c(=O)n2C1CCCC1` (stereo not drawn) [Example 28, 4-(8-Cyclopentyl-6-fluoro-4-methyl-7-oxo-7,8-dihydro-pyrido[2,3-d]pyrimidin-2-ylamino)-1-(1-phenyl-ethyl)-1H-pyrrole-2-carboxylic acid]: 15 nM; `CCOC(=O)c1cc(Nc2nc(C)c3ccc(=O)n(C4CCCCCC4)c3n2)cn1Cc1ccccc1` [Example 7, 1-Benzyl-4-(8-cycloheptyl-4-methyl-7-oxo-7,8-dihydro-pyrido[2,3-d]pyrimidin-2-ylamino)-1H-pyrrole-2-carboxylic acid ethyl ester]: 36 nM; `CCOC(=O)c1cc(Nc2nc(C)c3cc(F)c(=O)n(C4CCCC4)c3n2)cn1C(C)c1ccccc1` (stereo not drawn) [Example 13, 4-(8-Cyclopentyl-6-fluoro-4-methyl-7-oxo-7,8-dihydro-pyrido[2,3-d]pyrimidin-2-ylamino)-1-(1-phenyl-ethyl)-1H-pyrrole-2-carboxylic acid ethyl ester]: 160 nM.
The same measure, in the same setting: under `Cc1nc(Nc2cc(C(=O)O)n(C)c2)nc2c1ccc(=O)n2C1CCC1` [Example 21, 4-(8-Cyclobutyl-4-methyl-7-oxo-7,8-dihydro-pyrido[2,3-d]pyrimidin-2-ylamino)-1-methyl-1H-pyrrole-2-carboxylic acid] stands 55 nM.
`COC(=O)c1cc(Nc2nc(C)c3cc(F)c(=O)n(C4CCCC4)c3n2)cn1C` [Example 9, 4-(8-Cyclopentyl-6-fluoro-4-methyl-7-oxo-7,8-dihydro-pyrido[2,3-d]pyrimidin-2-ylamino)-1-methyl-1H-pyrrole-2-carboxylic acid methyl ester]: the IC50 was 12 nM.
The same measure, in the same setting: under `COC(=O)c1cc(Nc2nc(C)c3cc(F)c(=O)n(CC4CCOCC4)c3n2)cn1C` [Example 10, 4-[6-Fluoro-4-methyl-7-oxo-8-(tetrahydro-pyran-4-ylmethyl)-7,8-dihydro-pyrido[2,3-d]pyrimidin-2-ylamino]-1-methyl-1H-pyrrole-2-carboxylic acid methyl ester] stands 8 nM.

A further assay deals with CDK2/cyclin A (Homo sapiens, UniProt P24941). In words: CDK2/cyclinA In Vitro Kinase Assay. To be noted: 10 μM of each compound; Histone H1 substrate; 0.02 mM ATP; activity as percentage of controls with DMSO alone, mean of duplicates. Type of assay: biochemical. As for the experimental part: The inhibitory properties of the compounds of Examples 19, 24, and 31 were assayed in an in vitro CDK2/cyclinA assay at 10 μM of each compound in DMSO. CDK2/cyclin A (5-20 mU diluted in 50 mM Hepes pH 7.5, 1 mM DTT, 0.02% Brij35, 100 mM NaCl) was assayed against Histone H1 in a final volume of 25.5 μl containing 50 mM Hepes pH7.5, 1 mM DTT, 0.02% Brij35, 100 mM NaCl, Histone H1 (1 mg/ml), 10 mM magnesium acetate and 0.02 mM [^33P-γ-ATP](500-1000 cpm/pmole) and incubated for 30 min at room temperature. Assays were stopped by addition of 5 μl of 0.5 M (3%) orthophosphoric acid and then harvested onto P81 Unifilter plates and washed with 50 mM orthophosphoric acid. The filter plates were then counted in a scintillation counter.
The results in Table 3 are expressed as percentage of controls with DMSO alone (mean of duplicates ±the standard deviation from the mean).
`Cc1nc(Nc2cc(C(=O)O)n(C)c2)nc2c1ccc(=O)n2C1CCOCC1` [Example 19, 1-Methyl-4-[4-methyl-7-oxo-8-(tetrahydro-pyran-4-yl)-7,8-dihydro-pyrido[2,3-d]pyrimidin-2-ylamino]-1H-pyrrole-2-carboxylic acid]: the “% of DMSO control (mean ± S.D.)” value turned out to be 101 ± 6%.
As for `CCn1c(=O)c(Cl)cc2c(C)nc(Nc3cc(C(=O)O)n(C)c3)nc21` [Example 31, 4-(6-Chloro-8-ethyl-4-methyl-7-oxo-7,8-dihydro-pyrido[2,3-d]pyrimidin-2-ylamino)-1-methyl-1H-pyrrole-2-carboxylic acid], the “% of DMSO control (mean ± S.D.)” value stood at 104 ± 1%.
Same read-out and setting: next, `Cc1nc(Nc2cc(C(=O)O)n(C)c2)nc2c1cc(F)c(=O)n2C1CCCC1` [Example 24, 4-(8-Cyclopentyl-6-fluoro-4-methyl-7-oxo-7,8-dihydro-pyrido[2,3-d]pyrimidin-2-ylamino)-1-methyl-1H-pyrrole-2-carboxylic acid]: 85 ± 9%.
